Molecular target: mAb 10D6 (anti-PS-I IgG1)
Assay: Kinetic SPR of glycans binding to captured mAb 10D6
Set-up: species or system mouse
Settings: mAb 10D6, PBS, 25 °C, mean±s.e.m. n=3 or mean (min;max) n=2
Experimental: Kinetic SPR experiments were performed to determine the binding strengths of the mAbs to PS-I glycans expressed as dissociation constants (KD)[8] (Fig. 5a). […] Overall, the SPR measurements (summarized in Table 1) confirmed results obtained by glycan microarray presented above.
Binding analyses were carried out on a Biacore T100 instrument (GE Healthcare). CM5 sensor chips were functionalized with about 10,000 RUs of α-mouse IgG capture antibody, using the Mouse Antibody Capture Kit and the Amine Coupling Kit (GE Healthcare) according to the manufacturer's recommendations. A blank-immobilized flow cell was used as reference, to compensate for nonspecific binding of antibodies or oligosaccharides to the sensor chip surface. Kinetic measurements were performed with the Biacore T100 Control software using the ‘Kinetics' function. PBS was used as running buffer and all measurements were performed at 25 °C and a flow rate of 30 μl min^−1. About 500 RUs of mAbs were captured at a concentration of 50 μg ml^−1 diluted in PBS and oligosaccharides or OAAs (in PBS) at the indicated concentrations were passed through, using the standard parameters for association and dissociation times unless mentioned otherwise. […] The fitting quality was evaluated by investigating respective residual plots, χ^2 and s.e. values for on- and off-rates. […]
All sensorgrams were recorded on a Biacore T100 instrument (GE […]

Structure (SMILES)	Kd
C[C@@H]1O[C@@H](O[C@@H]2[C@@H](O)[C@H](O[C@H]3[C@H](O[C@@H]4O[C@@H](C)[C@H](O)[C@@H](O)[C@H]4O)[C@@H](O)[C@@H](O[C@H]4[C@@H](OCCCCCN)O[C@H](CO)[C@@H](O)[C@@H]4O)O[C@@H]3CO)O[C@H](CO)[C@H]2O)[C@H](O)[C@H](O)[C@H]1O [Compound 1]	0.169 µM
C[C@@H]1O[C@@H](O[C@@H]2[C@@H](O)[C@H](OCCCCCN)O[C@H](CO)[C@H]2O)[C@H](O)[C@H](O)[C@H]1O [Compound 3, Rha-(1→3)-Glc]	37.5 ± 0.4 µM

Source: paper PMC4838876, “Multivalent display of minimal Clostridium difficile glycan epitopes mimics antigenic properties of larger glycans” (Nature Communications, 2016)
